Non-standard residues stand in square brackets, D forms with d. Residues, ends and D or L forms follow the SMILES beside them. No end group written: not given here. *: point of attachment. pGlu = O=C1CC[C@@H](C(=O)O)N1; Orn = NCCC[C@H](N)C(=O)O; Bn = c1ccc(C*)cc1
Test system: LRF (luteinizing hormone releasing factor) induced luteinizing hormone (LH) release
Experiment: In vitro LRF antagonist test in rat anterior pituitary cell cultures
Format: cell-based
Description: Nonapeptides of this invention were screened for LRF antagonist activity in vitro using rat anterior pituitary cell cultures as described by Vale et al. [Endocrinology, 91, 562 (1972)]. The inhibition of LRF (luteinizing hormone releasing factor) induced luteinizing hormone (LH) release into the culture medium is the endpoint in this in vitro bioassay.

LRF Control: luteinizing hormone releasing factor, also referred to as luteinizing hormone releasing hormone, LH-RH; stimulates secretion of luteinizing hormone (QHWSYGLRPG; ends and bridges not checked; UniProt P01148 24-33, looked up) [reference compound]
LH Value (LRF alone, Molar Conc. 2.5×10^-10): 39.98 ng/mL

CCNC(=O)[C@@H]1CCCN1C(=O)[C@H](CCCN)NC(=O)[C@H](CC(C)C)NC(=O)[C@@H](C)NC(=O)[C@H](COCc1ccccc1)NC(=O)[C@H](Cc1ccc(OCc2ccccc2)cc1)NC(=O)[C@H](Cc1c[nH]c2ccccc12)NC(=O)[C@@H](Cc1ccccc1)NC(=O)[C@@H]1CCC(=O)N1 [L-pyroglutamyl-D-phenylalanyl-L-tryptophyl-O-benzyl-L-tyrosyl-O-benzyl- L-seryl-D-alanyl-L-leucyl-L-ornithyl-L-proline N-ethylamide] ([pGlu][dF]WY(Bn)S(Bn)[dA]L[Orn]P-NHEt)
LH Value (compound Molar Conc. 1×10^-6, LH released into culture medium): 19.15 ng/mL
% LH Release Inhibition (compound Molar Conc. 1×10^-6, inhibition of LRF induced LH release): 61%

Source: US4075192A, “Nonapeptides and methods for their production” (Parke, Davis & Company, priority 1977, dated 1978)
